molecular target: activated p38α enzyme (Homo sapiens, UniProt Q16539); assay: p38 Biochemical Assay; set-up: key: An “active” compound is defined as a compound having an IC50 below 500 nM; conditions: 5 nM activated p38α, 1 uM ATF-2 substrate, 10 μM ATP
Experimental: P38 activity was assayed at room temperature in a 100 μl reaction containing 5 nM activated p38α enzyme and 1 uM ATF-2 (Activating Transcription Factor 2 fusion protein) as the substrate in 25 mM HEPES (pH 7.4), 100 μM Vanadate, 1 mM DTT, 10 mM MgCl2 and 10 μM [[…]-^33P]-ATP (˜0.1 μCi P^33/reaction). The reaction was terminated after 30-40 minutes by adding 25% TCA, let stand for 5 minutes and then transferred directly to a GF-B membrane filter plate. The filter was washed twice for 30 seconds with 0.5% phosphoric acid using a Tomtec Mach III Automated Harvestor. After washing, the vacuum was continued for 30 seconds to dry the filter. Approximately 30 μl of scintillant was added per well to the filter plate and then read in a Liquid Scintillation Counter (Packard TopCount HTS).

activated p38α enzyme, sequence (Q16539 whole entry, the tested form may be a part): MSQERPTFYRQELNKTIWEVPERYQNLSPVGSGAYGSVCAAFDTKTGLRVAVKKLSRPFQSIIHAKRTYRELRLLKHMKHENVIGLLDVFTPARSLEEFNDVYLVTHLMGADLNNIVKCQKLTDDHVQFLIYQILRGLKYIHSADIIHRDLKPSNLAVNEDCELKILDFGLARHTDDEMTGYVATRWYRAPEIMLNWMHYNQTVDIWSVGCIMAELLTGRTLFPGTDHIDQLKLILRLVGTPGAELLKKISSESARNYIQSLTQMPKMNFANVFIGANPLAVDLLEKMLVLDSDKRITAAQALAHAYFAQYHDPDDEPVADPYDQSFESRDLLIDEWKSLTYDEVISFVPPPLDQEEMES

Row | Structure (SMILES) | p38 Inhibition IC50 (nM)
1 | CC(C)Cn1ncc2cc(C(O)c3ccc(F)cc3)ccc21 (centres unmarked) [Compound 4f-2, (4-fluorophenyl)-(1-isobutyl-1H-indazol-5-yl)-methanol] | active
2 | CC(C)Cn1ncc2cc(C(=O)c3ccc(Cl)cc3F)ccc21 [Compound 5f-7, (4-chloro-2-fluorophenyl)-(1-isobutyl-1H-indazol-5-yl)-methanone] | active
3 | O=C(c1ccc2c(cnn2CC(F)(F)F)c1)c1ccc(F)cc1F [Compound 5f-11, (2,4-difluorophenyl)-[1-(2,2,2-trifluoro-ethyl)-1H-indazol-5-yl]-methanone] | active
4 | CN(C)CCNC(=O)c1cc2c(cnn2CC(F)(F)F)cc1Oc1ccc(F)cc1 [Compound 11g-14, 5-(4-fluorophenoxy)-1-(2,2,2-trifluoroethyl)-1H-indazole-6-carboxylic acid (2-dimethylaminoethyl) amide] | active
5 | CC(C)Cn1ncc2cc(C(O)c3ccc(Cl)cc3F)ccc21 (centres unmarked) [Compound 4f-7, (4-chloro-2-fluorophenyl)-(1-isobutyl-1H-indazol-5-yl)-methanol] | active
6 | CC(C)Cn1ncc2cc(C(=O)c3ccc(F)cc3Cl)ccc21 [Compound 5f-8, (2-chloro-4-fluorophenyl)-(1-isobutyl-1H-indazol-5-yl)-methanone] | active
7 | ON=C(c1ccc2c(cnn2CC(F)(F)F)c1)c1ccc(F)cc1F [Compound 7f-12, (2,4-difluorophenyl)-[1-(2,2,2-trifluoroethyl)-1H-indazol-5-yl]-methanone oxime] | active
8 | Cc1ccc(-n2nc(C(C)(C)C)cc2NC(=O)NCc2cc(F)ccc2Oc2ccc3c(cnn3C)c2)cc1 [Compound 7t-1, 1-(5-tert-butyl-2-p-tolyl-2H-pyrazol-3-yl)-3-[5-fluoro-2-(1-methyl-1H-indazol-5-yloxy)-benzyl]urea] | active
9 | CC(C)Cn1ncc2cc(C(O)c3ccc(F)cc3Cl)ccc21 (centres unmarked) [Compound 4f-8, (2-chloro4-fluorophenyl)-(1-isobutyl-1H-indazol-5-yl)-methanol] | active
10 | Cc1ccc(-n2nc(C(C)(C)C)cc2NC(=O)N(C)Cc2cc(F)ccc2Oc2ccc3c(cnn3C)c2)cc1 [Compound 28t, 3-(5-tert-butyl-2-p-tolyl-2H-pyrazol-3-yl)-1-[5-fluoro-2-(1-methyl-1H-indazol-5-yloxy)-benzyl]-1-methylurea] | active
11 | Cc1ccccc1C(O)c1ccc2c(cnn2CC(C)C)c1 (centres unmarked) [Compound 4f-10, (1-isobutyl-1H-indazol-5-yl)-O-tolyl methanol] | active
12 | CON=C(c1ccc2c(cnn2CC(F)(F)F)c1)c1ccc(F)cc1F [Compound 7f-13, (2,4-difluorophenyl)-[1-(2,2,2-trifluoro-ethyl)-1H-indazol-5-yl]-methanone O-methyl oxime] | active

Next, values leading:

Row | p38 Inhibition IC50 (nM) | Structure (SMILES)
13 | active | Cc1ccc(-n2nc(C(C)(C)C)cc2NC(=O)NCc2cc(F)ccc2Nc2ccc3c(cnn3CC3CCC3)c2)cc1 [Compound 9q-2, 1-(5-tert-butyl-2-p-tolyl-2H-pyrazol-3-yl)-3-[2-(1-cyclobutylmethyl-1H-indazol-5-ylamino)-5-fluorobenzyl]-urea]
14 | active | CC(C)Cn1ncc2cc(Nc3ccc(F)cc3F)ccc21 [Compound 2h-1, (2,4-difluorophenyl)-(1-isobutyl-1H-indazol-5-yl)-amine]
15 | active | CCON=C(c1ccc(F)cc1)c1ccc2c(cnn2CC(C)C)c1 [Compound 7f-4, (4-fluorophenyl)-(1-isobutyl-1H-indazol-5-yl)-methanone O-ethyl-oxime]
16 | active | CC(C)Cn1ncc2cc(Oc3ccc(F)cc3)c(C(N)=O)cc21 [Compound 11g-1, 5-(4-fluorophenoxy)-1-isobutyl-1H-indazole-6-carboxylic acid amide]
17 | active | Cc1ccc(-n2nc(C(C)(C)C)cc2NC(=O)NCc2cccnc2Oc2ccc3c(cnn3C)c2)cc1 [Compound 6n, 1-(5-tert-butyl-2-p-tolyl-2H-pyrazol-3-yl)-3-[2-(1-methyl-1H-indazol-5-yloxy)-pyridin-3-ylmethyl]-urea]
18 | active | CON=C(c1ccc2c(cnn2S(C)(=O)=O)c1)c1ccc(F)cc1F [Compound 7f-15, (2,4-difluorophenyl)-(1-methanesulfonyl-1H-indazol-5-yl)-methanone O-methyl oxime]
19 | active | CS(=O)(=O)n1ncc2cc(C(=NO)c3ccc(F)cc3F)ccc21 [Compound 7f-14, (2,4-difluorophenyl)-(1-methanesulfonyl-1H-indazol-5-yl)methanone oxime]
20 | active | COC(=O)C(CCN)NC(=O)c1cc2c(cnn2CC(F)(F)F)cc1Oc1ccc(F)cc1 (centres unmarked) [Compound 1j-4, 4-amino-2-{[5-(4-fluorophenoxy)-1-(2,2,2-trifluoroethyl)-1H-indazole-6-carbonyl]-amino}butyric acid methyl ester]
21 | active | C=CCn1ncc2cc(C(=O)c3ccc(F)cc3F)ccc21 [Compound 5f-12, (1-allyl-1H-indazol-5-yl)-(2,4-difluorophenyl)-methanone]
22 | active | CC(C)Cn1ncc2cc(C(=NOCc3ccccc3)c3ccc(F)cc3F)ccc21 [Compound 7f-7, (2,4-difluorophenyl)-(1-isobutyl-1H-indazol-5-yl)-methanone O-benzyl-oxime]
23 | active | COC(=O)C(CCN)NC(=O)c1cc2c(cnn2CC(C)C)cc1Oc1ccc(F)cc1 (centres unmarked) [Compound 1j-2, 4-amino-2-{[5-(4-fluorophenoxy)-1-isobutyl-1H-indazole-6-carbonyl]-amino}butyric acid methyl ester]
24 | active | CC(C)Cn1ncc2cc(Oc3ccccc3CC(=O)Nc3ccc(N4CCOCC4)cc3)ccc21 [Compound 16p, 2-[2-(1-isobutyl-1H-indazol-5-yloxy)-phenyl]-N-(4-morpholin-4-yl-phenyl)-acetamide]
25 | active | C=CCn1ncc2cc(C(=NO)c3ccc(F)cc3F)ccc21 [Compound 7f-17, (1-allyl-1H-indazol-5-yl)-(2,4-difluorophenyl)-methanone oxime]
26 | active | CON=C(c1ccc(F)cc1)c1ccc2c(cnn2CC(C)C)c1 [Compound 7f-9, (4-fluorophenyl)-(1-isobutyl-1H-indazol-5-yl)-methanone O-methyl-oxime]

system: LPS-induced TNF-α secretion from human peripheral blood mononuclear cells (PBMC); assay: PBMC Assay: inhibition of LPS-induced TNF-α secretion; type: cell-based; set-up: key: An “active” compound is defined as a compound having an IC50 below 500 nM; conditions: LPS-stimulated human PBMC, TNF-α ELISA
Experimental: The ability of compounds of this invention to inhibit TNF-α production was assessed by using human peripheral blood mononuclear cells (“PBMC”) which synthesize and secrete TNF-α when stimulated with lipopolysaccharide.
Compound test solutions were made by making 5 fold serial dilutions in DMSO, which dilutions were then diluted to 5× stocks by diluting with MEM, 2% heat inactivated fetal bovine serum (“FBS”), 20 mM HEPES, 2 mM L-glutamine, and 1% penicillin/streptomycin.
PBMC's were isolated from human blood as follows. Whole blood samples were collected from human volunteers into Vacutainer™ CPT from Becton Dickinson. Tubes were mixed and centrifuged at room temperature (18-25° C.) in a horizontal rotor for a minimum of 15 minutes at 1500-1800 RCF (relative centrifugal force). For each donor, the buffy coat layers were pooled into a single tube and washed twice with phosphate buffered saline (“PBS”). The cell pellet was resuspended in MEM, 2% heat inactivated fetal bovine serum (“FBS”), 20 mM HEPES, 2 mM L-glutamine, and 1% penicillin/streptomycin. Total cell number was determined using a hemocytometer and the cell suspension was adjusted to 2×10^6 cells/mL.
0.1 mL of cell suspension was added to each well of a 96-well cell culture plate. 30 μL of a compound test solution was added, and the cells were incubated in a 37° C./5% CO2 incubator for 1 hour. 20 μL of 7.5 ng/mL lipopolysaccharide (LPS E. Coli K-235) was then added to each well, and the cells were returned to the 37° C./5% CO2 incubator for 16-20 hours. The cells were centrifuged for 15 minutes at 1100 RCF. Approximately 0.12 mL of the supernatant was transferred into a clean 96 well polypropylene plate. The samples were either assayed immediately or were stored at −80° C. until ready for assay. TNF-α levels were determined in each sample using a human TNF-α ELISA assay such as that described below.
TNF-α levels were determined using the following assay. TNF-alpha antibody coated plates were prepared by adding 150 μL of 2 μg/mL anti-TNF-α purified mouse monoclonal IgG in Carbonate-Bicarbonate buffer (BupH™ Carbonate-Bicarbonate Buffer Pack) to wells of a 96-well Immulon 4 plate (Immulon 4 ELISA Flat Bottom Plate; Dynex, catalog number 011-010-3855) and incubated overnight at 2-8° C. Coating solution was removed and 200 μL of “blocking buffer” (20 mM HEPES pH 7.4, 150 mM NaCl, 2% BSA) was added and plates were stored 2-8° C. until ready to use. A ten-point recombinant human TNF-α standard curve was prepared by a 1:2 serial dilution in “sample diluent” (20 mM HEPES, pH 7.4, 150 mM NaCl, 2 mM MgCl2, 1% BSA) with a top concentration of 6000 pg/mL.
Blocking solution was removed from TNF-α ELISA plates by washing five times with 300 μL of “wash buffer” (20 mM HEPES, pH 7.4, 150 mM NaCl, 2 mM MgCl2, 0.02% Tween-20). 50 μL of “sample diluent” was added to all wells, and then either 50 μL of a TNF-α standard curve solution or test compound supernatant was added to all wells. The plate was incubated at room temperature for one hour with shaking (300 rpm). The plate was washed wash five times with 300 μL “wash buffer”. 100 μL of 0.2 μg/mL biotinylated goat anti-human TNF-α in “antibody diluent” (20 mM HEPES, pH 7.4, 150 mM NaCl, 2 mM MgCl2, 1% BSA, 0.02% Tween-20) was added per well, and the plate was incubated at room temperature for one hour with shaking (300 rpm). The plate was washed wash five times with 300 μL “wash buffer” per well. 100 μL of 0.02 μg/mL streptavidin alkaline phosphatase in “antibody diluent” was added per well, and the plate was incubated at room temperature for one hour with shaking (300 rpm). The plate was washed wash five times with 300 μL wash buffer per well. 200 μL of 1 mg/mL pNPP (p-nitrophenyl phosphate) in diethanolamine buffer with 0.5 mM MgCl2 was added per well, and the plate was incubated for 30 to 45 minutes at room temperature with shaking (300 rpm). […]

Row | Structure (SMILES) | PBMC IC50 (nM)
27 | CC(C)Cn1ncc2cc(C(O)c3ccc(F)cc3)ccc21 (centres unmarked) [Compound 4f-2, (4-fluorophenyl)-(1-isobutyl-1H-indazol-5-yl)-methanol] | active
28 | CC(C)Cn1ncc2cc(Nc3ccc(F)cc3F)ccc21 [Compound 2h-1, (2,4-difluorophenyl)-(1-isobutyl-1H-indazol-5-yl)-amine] | active
29 | CC(C)Cn1ncc2cc(C(=O)c3ccc(Cl)cc3F)ccc21 [Compound 5f-7, (4-chloro-2-fluorophenyl)-(1-isobutyl-1H-indazol-5-yl)-methanone] | active

Reference: patent publication US7521447B2, “P38 inhibitors and methods of use thereof” (Array Biopharma Inc., priority 2003, dated 2009)
